Experiments:
[1] = system: CCR2 expressing cells (CD11b+Ly6c+Hi) in peripheral blood; experiment: In vivo depletion assay, flow cytometry of peripheral blood (Example 201); design: species or system human CCR2 knock-in mice (C57 background); conditions: hCCR2 knock-in mice, IV 0.1 mpk compound + 10 mpk anti-cotinine antibody (SEQ ID NO: 13/14), peripheral blood at 48 hr
Summary of the method: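 Flow cytometry of blood collected at study termination quantified percent depletion of CD11b+Ly6c+Hi cells and CCR2 expression, using surface markers CD45, CD3, CD11b, Ly6C, human CCR2 after Fc block, with 7AAD viability stain. Compound given in saline:DMSO:PBS formulation, optionally combined with anti-cotinine antibody, incubated 30 min before administration.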

[2] = biological target: anti-cotinine antibody (SEQ ID NO: 11/12, rabbit variable region with human IgG1 Fc DE mutation); experiment: SPR binding of anti-cotinine antibody to ARM compounds, Biacore T200, 37° C. (Example 202); conditions: SPR Biacore T200, 37° C., pH 7.4, antibody SEQ ID NO: 11/12 captured on protein A; Kd in molar
Summary of the method: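 Run at 37 °C in 10 mM HEPES pH 7.4, 150 mM NaCl, 0.005% P20, 1% DMSO, with compounds titrated from 200 nM (five 3-fold steps) over protein A–captured antibody. A 1:1 kinetic model on double-referenced data gave rate constants, Kd as koff/kon and residence time 1/koff; results as pKd, run-averaged.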

[3] = biological target: human alpha1 nicotinic acetylcholine (nACh) receptor (Homo sapiens, UniProt P02708); experiment: Nicotinic acetylcholine receptor antagonism assay, IONFlux automated patch clamp (Example 203); type: cell-based; conditions: for IC50: antagonism of ACh-stimulated human alpha1 nAChR current, patch clamp; for Emax at 100 µM: maximum percentage antagonism at maximum concentration tested 100 μM, read-out: Maximum Response
Summary of the method: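 Cells expressing human α1 nAChR were incubated with a compound dose response (top 10 μM or 100 μM), then stimulated with ACh (10 mM), and peak current was read by automated patch clamp. % inhibition was taken against ACh-alone control, corrected for vehicle and run-down, and fit non-linearly for IC50; runs were averaged.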

Sequence of human alpha1 nicotinic acetylcholine (nACh) receptor (P02708 21-457): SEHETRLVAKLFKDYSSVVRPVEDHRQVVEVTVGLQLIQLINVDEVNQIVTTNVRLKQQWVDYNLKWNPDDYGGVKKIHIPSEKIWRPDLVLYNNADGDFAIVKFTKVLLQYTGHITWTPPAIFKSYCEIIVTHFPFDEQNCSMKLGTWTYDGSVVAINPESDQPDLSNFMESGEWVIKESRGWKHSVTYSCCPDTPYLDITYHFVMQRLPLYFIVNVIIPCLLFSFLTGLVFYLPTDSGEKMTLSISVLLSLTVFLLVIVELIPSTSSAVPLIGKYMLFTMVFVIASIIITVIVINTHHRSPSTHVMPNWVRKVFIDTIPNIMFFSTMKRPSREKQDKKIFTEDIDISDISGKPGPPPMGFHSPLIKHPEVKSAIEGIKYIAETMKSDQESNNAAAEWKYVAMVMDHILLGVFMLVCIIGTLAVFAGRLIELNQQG
Sequence of human alpha1 nicotinic acetylcholine (nACh) receptor (P11230 24-501 partner): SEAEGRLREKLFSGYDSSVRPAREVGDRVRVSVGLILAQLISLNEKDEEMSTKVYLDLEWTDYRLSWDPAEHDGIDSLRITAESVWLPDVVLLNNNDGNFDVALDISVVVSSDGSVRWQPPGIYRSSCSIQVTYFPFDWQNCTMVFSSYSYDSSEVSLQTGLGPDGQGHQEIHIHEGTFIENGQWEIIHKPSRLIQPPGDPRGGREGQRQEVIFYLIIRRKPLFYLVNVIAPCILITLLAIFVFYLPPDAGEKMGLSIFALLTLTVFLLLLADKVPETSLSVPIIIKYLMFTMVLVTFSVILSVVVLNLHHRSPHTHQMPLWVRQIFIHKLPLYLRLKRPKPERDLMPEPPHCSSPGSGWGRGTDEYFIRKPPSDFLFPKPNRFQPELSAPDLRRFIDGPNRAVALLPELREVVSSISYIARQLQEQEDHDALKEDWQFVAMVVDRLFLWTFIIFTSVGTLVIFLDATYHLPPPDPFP
Sequence of human alpha1 nicotinic acetylcholine (nACh) receptor (Q07001 22-517 partner): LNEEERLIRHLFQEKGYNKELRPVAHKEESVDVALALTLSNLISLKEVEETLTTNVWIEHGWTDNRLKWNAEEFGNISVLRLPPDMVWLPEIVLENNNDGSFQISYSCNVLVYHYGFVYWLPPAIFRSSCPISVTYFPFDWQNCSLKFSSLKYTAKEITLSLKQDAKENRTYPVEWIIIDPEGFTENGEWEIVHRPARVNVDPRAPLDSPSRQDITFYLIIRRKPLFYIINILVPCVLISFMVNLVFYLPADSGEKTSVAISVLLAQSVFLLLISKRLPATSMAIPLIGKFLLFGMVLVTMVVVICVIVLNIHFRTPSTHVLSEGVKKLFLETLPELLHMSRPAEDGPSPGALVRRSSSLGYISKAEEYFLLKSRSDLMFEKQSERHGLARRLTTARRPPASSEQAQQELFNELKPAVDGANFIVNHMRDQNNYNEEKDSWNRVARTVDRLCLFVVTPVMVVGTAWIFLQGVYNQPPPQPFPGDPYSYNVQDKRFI

Structure (SMILES)	% Depletion of CCR2 expressing cells [1] [%]	pKd of Antibody for ARM Compound of Formula (I) [2]	IC50 [3] [µM]	Emax at 100 µM [3] [%]
CC(C)N(C)[C@@H]1CC[C@H](N2CC[C@H](Nc3ncnc4ccc(C(F)(F)F)cc34)C2=O)[C@H](NC(=O)CNC(=O)[C@H]2CC[C@@H](NC(=O)CCOCCOCCNC(=O)[C@H]3CC(=O)N(C)[C@@H]3c3cccnc3)CC2)C1 [Example 137, (2S,3S)-N-(2-(2-(3-(((1S,4s)-4-((2-(((1R,2S,5R)-5-(Isopropyl(methyl)amino)-2-((S)-2-oxo-3-((6-(trifluoromethyl)quinazolin-4-yl)amino)pyrrolidin-1-yl)cyclohexyl)amino)-2-oxoethyl)carbamoyl)cyclohexyl)amino)-3-oxopropoxy)ethoxy)ethyl)-1-methyl-5-oxo-2-(pyridin-3-yl)pyrrolidine-3-carboxamide]	89	9.336	70	62
CC(C)N(C)[C@@H]1CC[C@H](N2CC[C@H](Nc3ncnc4ccc(C(F)(F)F)cc34)C2=O)[C@H](NC(=O)[C@H]2CC[C@@H](NC(=O)CCOCCNC(=O)CCNC(=O)CCNC(=O)[C@H]3CC(=O)N(C)[C@@H]3c3cccnc3)CC2)C1 [Example 182, (2S,3S)-N-(3-((3-((2-(3-(((1S,4s)-4-(((1R,2S,5R)-5-(Isopropyl(methyl)amino)-2-((S)-2-oxo-3-((6-(trifluoromethyl)quinazolin-4-yl)amino)pyrrolidin-1-yl)cyclohexyl)carbamoyl)cyclohexyl)amino)-3-oxopropoxy)ethyl)amino)-3-oxopropyl)amino)-3-oxopropyl)-1-methyl-5-oxo-2-(pyridin-3-yl)pyrrolidine-3-carboxamide]	97	9.117	76.4	61.9
CC(C)N(C)[C@@H]1CC[C@H](N2CC[C@H](Nc3ncnc4ccc(C(F)(F)F)cc34)C2=O)[C@H](NC(=O)CCOCCC(=O)N[C@H]2C[C@@H](C(=O)NCCOCCNC(=O)[C@H]3CC(=O)N(C)[C@@H]3c3cccnc3)C2)C1 [Example 186, (2S,3S)-N-(2-(2-((1S,3R)-3-(3-(3-(((1R,2S,5R)-5-(Isopropyl(methyl)amino)-2-((S)-2-oxo-3-((6-(trifluoromethyl)quinazolin-4-yl)amino)pyrrolidin-1-yl)cyclohexyl)amino)-3-oxopropoxy)propanamido)cyclobutane-1-carboxamido)ethoxy)ethyl)-1-methyl-5-oxo-2-(pyridin-3-yl)pyrrolidine-3-carboxamide]	96	9.1435	31.8	55.2
CC(C)N(C)[C@@H]1CC[C@H](N2CC[C@H](Nc3ncnc4ccc(C(F)(F)F)cc34)C2=O)[C@H](NC(=O)CCOCCC(=O)N[C@H]2C[C@H](C(=O)NCCOCCNC(=O)[C@H]3CC(=O)N(C)[C@@H]3c3cccnc3)C2)C1 [Example 187]	92	9.104	71.1	63.7
CN1C(=O)C[C@H](C(=O)NCCOCCNC(=O)[C@H]2C[C@H](NC(=O)CCOCCC(=O)N[C@@H]3C[C@H](NC(C)(C)C)CC[C@@H]3N3CC[C@H](Nc4ncnc5ccc(C(F)(F)F)cc45)C3=O)C2)[C@H]1c1cccnc1 [Example 188, (2S,3S)-N-(2-(2-((1R,3S)-3-(3-(3-(((1R,2S,5R)-5-(tert-butylamino)-2-((S)-2-oxo-3-((6-(trifluoromethyl)quinazolin-4-yl)amino)pyrrolidin-1-yl)cyclohexyl)amino)-3-oxopropoxy)propanamido)cyclobutane-1-carboxamido)ethoxy)ethyl)-1-methyl-5-oxo-2-(pyridin-3-yl)pyrrolidine-3-carboxamide]	91	8.975	85.9	53.5
